Measured values published in patent publication US12590106B2, “Spiromacrocyclic orexin 2 receptor agonists” (H. Lundbeck A/S, priority 2023, dated 2026).

Target: T1, human Ox2R (Homo sapiens, UniProt O43614)
T1 construct: The gene encoding hOx2R was subcloned into the expression plasmid pcDNA5/FRT/TO; expressed in transfected cells; host or cells: CHO Flp-In cells (pcDNA5/FRT/TO with pOG44 Flp recombinase vector, hygromycin B selection)
T1 sequence (O43614 1-444): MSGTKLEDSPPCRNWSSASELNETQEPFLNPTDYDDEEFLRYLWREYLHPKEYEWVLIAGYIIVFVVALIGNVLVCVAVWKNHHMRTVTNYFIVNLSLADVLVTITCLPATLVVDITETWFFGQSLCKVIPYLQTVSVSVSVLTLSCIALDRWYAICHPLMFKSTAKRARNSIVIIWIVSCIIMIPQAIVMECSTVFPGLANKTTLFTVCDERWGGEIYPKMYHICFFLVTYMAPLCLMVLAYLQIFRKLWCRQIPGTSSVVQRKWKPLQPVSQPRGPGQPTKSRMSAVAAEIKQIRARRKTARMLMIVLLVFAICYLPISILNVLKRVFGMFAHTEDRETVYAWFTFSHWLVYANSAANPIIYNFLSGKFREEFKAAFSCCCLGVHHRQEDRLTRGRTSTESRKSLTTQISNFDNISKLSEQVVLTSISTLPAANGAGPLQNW
Test: Measurement of OX2R agonist activity (cell-based calcium release assay)
Details: hOx2R-CHO Flp-In cells, n≥2 tests; for EC50: intracellular calcium, read-out: EC50; for Emax: normalized to assay buffer (0%) and 10 μM Danavorexton (100%), read-out: Emax (%)
Procedure, shortened: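 CHO Flp-In cells stably expressing human Ox2R, dye-loaded 1 h at 37 °C in HBSS/20 mM HEPES pH 7.4 with 2.5 mM probenecid and 10 mM CaCl2, then stimulated with compound.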

| SMILES | EC50 [nM] | Emax [%] |
| --- | --- | --- |
| CS(=O)(=O)N[C@H]1CC[C@]2(CC1)Cc1cccc(c1)-c1cccc(F)c1OCc1coc2n1 [Example 75, N-(cis)-(6-fluorospiro[8,12-dioxa-21-azatetracyclo[14.3.1.110,13.02,7]henicosa-1(20),2,4,6,10,13(21),16,18-octaene-14,4′-cyclohexane]-1′-yl)methanesulfonamide] | 1.4 | 100 |
| CS(=O)(=O)N[C@H]1CC[C@@]2(Cc3ccc(Cl)c(c3)-c3cc(F)cc(F)c3OCc3coc2n3)C1 [Example 76, N-[(1′S,14R)-19-chloro-4,6-difluoro-spiro[8,12-dioxa-21-azatetracyclo[14.3.1.110,13.02,7]henicosa-1(19),2,4,6,10,13(21),16(20),17-octaene-14,3′-cyclopentane]-1′-yl]methanesulfonamide] | 0.26 | 99 |
| O=S(=O)(N[C@H]1CC[C@@]2(Cc3cccc(c3)-c3cccc(F)c3OCc3coc2n3)C1)C1CCOC1 (stereo partly drawn) [Example 79, N-[(1′S,14R)-6-fluorospiro[8,12-dioxa-21-azatetracyclo[14.3.1.110,13.02,7]henicosa-1(19),2,4,6,10,13(21),16(20),17-octaene-14,3′-cyclopentane]-1′-yl]tetrahydrofuran-3-sulfonamide] | 20 | 100 |
| CS(=O)(=O)N[C@H]1CC[C@@]2(Cc3cccc(n3)-c3ccccc3OCc3coc2n3)C1 [Example 80, N-[(1′S,14S)-spiro[8,12-dioxa-20,21-diazatetracyclo[14.3.1.110,13.02,7]henicosa-1(20),2,4,6,10,13(21),16,18-octaene-14,3′-cyclopentane]-1′-yl]methanesulfonamide] | 9900 | 66 |
| Cn1cc2c(n1)OCc1coc(n1)[C@]1(CC[C@H](NS(C)(=O)=O)C1)Cc1ccc(F)c-2c1 [Example 81, N-[(1′S,13R)-18-fluoro-4-methyl-spiro[7,11-dioxa-4,5,20-triazatetracyclo[13.3.1.19,12.02,6]icosa-1(18),2,5,9,12(20),15(19),16-heptaene-13,3′-cyclopentane]-1′-yl]methanesulfonamide] | 0.068 | 100 |
| CS(=O)(=O)N[C@H]1CC[C@@]2(Cc3ccc(F)c(c3)-c3cccc(F)c3OCc3ccnc2n3)C1 [Example 82, N-[(1′S,15R)-6,20-difluorospiro[8-oxa-13,22-diazatetracyclo[15.3.1.110,14.02,7]docosa-1(20),2(7),3,5,10,12,14(22),17(21),18-nonaene-15,3′-cyclopentane]-1′-yl]methanesulfonamide] | 3.7 | 100 |
| Cn1cc2c(n1)OCc1coc(n1)[C@]1(CC[C@H](NS(C)(=O)=O)C1)Cc1cc-2c(F)cc1F [Example 83, N-[(1′S,13R)-16,18-difluoro-4-methyl-spiro[7,11-dioxa-4,5,20-triazatetracyclo[13.3.1.19,12.02,6]icosa-1(18),2,5,9,12(20),15(19),16-heptaene-13,3′-cyclopentane]-1′-yl]methanesulfonamide] | 2.6 | 100 |
| CCS(=O)(=O)N[C@H]1CC[C@@]2(Cc3cc(c(F)cc3F)-c3cccc(F)c3OCc3coc2n3)C1 [Example 84, N-[(1′S,14R)-6,17,19-trifluorospiro[8,12-dioxa-21-azatetracyclo[14.3.1.110,13.02,7]henicosa-1(19),2,4,6,10,13(21),16(20),17-octaene-14,3′-cyclopentane]-1′-yl]ethanesulfonamide] | 0.25 | 100 |
| C[C@H]1Oc2c(F)cccc2-c2cc(ccc2F)C[C@@]2(CC[C@H](NS(C)(=O)=O)C2)c2nc1co2 [Example 85, N-[(1′S,9R,14R)-6,19-difluoro-9-methyl-spiro[8,12-dioxa-21-azatetracyclo[14.3.1.110,13.02,7]henicosa-1(19),2(7),3,5,10,13(21),16(20),17-octaene-14,3′-cyclopentane]-1′-yl]methanesulfonamide] | 2.3 | 100 |
| CS(=O)(=O)N[C@H]1CC[C@@]2(Cc3cccc(c3)-c3cccc(c3)OCc3ccnc2n3)C1 [Example 86, N-[(1′S,14R)-spiro[7-oxa-12,21-diazatetracyclo[14.3.1.12,6.19,13]docosa-1(20),2,4,6(22),9,11,13(21),16,18-nonaene-14,3′-cyclopentane]-1′-yl]methanesulfonamide] | 90 | 100 |
| CS(=O)(=O)N[C@H]1CC[C@@]2(Cc3ccc(F)c(c3)-c3ccc(F)c(F)c3OCc3ccnc2n3)C1 [Example 87, N-[(1′S,15R)-5,6,20-trifluorospiro[8-oxa-13,22-diazatetracyclo[15.3.1.110,14.02,7]docosa-1(21),2,4,6,10,12,14(22),17,19-nonaene-15,3′-cyclopentane]-1′-yl]methanesulfonamide] | 2 | 100 |
| CS(=O)(=O)N[C@H]1CC[C@@]2(Cc3ccc(F)c(c3)-c3ccccc3OCc3ccnc2n3)C1 [Example 90, N-[(1′S,15R)-20-fluorospiro[8-oxa-13,22-diazatetracyclo[15.3.1.110,14.02,7]docosa-1(20),2,4,6,10,12,14(22),17(21),18-nonaene-15,3′-cyclopentane]-1′-yl]methanesulfonamide] | 1.1 | 110 |
| CS(=O)(=O)N[C@H]1CC[C@@]2(Cc3ccc(F)c(c3)-c3cc(F)cc(F)c3OCc3ccnc2n3)C1 [Example 91, N-[(1′S,15R)-4,6,20-trifluorospiro[8-oxa-13,22-diazatetracyclo[15.3.1.110,14.02,7]docosa-1(20),2,4,6,10,12,14(22),17(21),18-nonaene-15,3′-cyclopentane]-1′-yl]methanesulfonamide] | 0.32 | 100 |
| CS(=O)(=O)N[C@H]1CC[C@@]2(Cc3ccc(F)c(c3)-c3ccc(F)cc3OCc3ccnc2n3)C1 [Example 92, N-[(1′S,15R)-5,20-difluorospiro[8-oxa-13,22-diazatetracyclo[15.3.1.110,14.02,7]docosa-1(20),2,4,6,10,12,14(22),17(21),18-nonaene-15,3′-cyclopentane]-1′-yl]methanesulfonamide] | 16 | 110 |
| CS(=O)(=O)N[C@H]1CC[C@@]2(Cc3ccc(F)c(c3)-c3cccc(F)c3OCc3nccc2n3)C1 [Example 95, N-[(1′S,15R)-6,20-difluorospiro[8-oxa-11,22-diazatetracyclo[15.3.1.110,14.02,7]docosa-1(20),2,4,6,10,12,14(22),17(21),18-nonaene-15,3′-cyclopentane]-1′-yl]methanesulfonamide] | 8 | 100 |
| CS(=O)(=O)N[C@H]1CC[C@]2(CC1)Cc1cc(c(F)cc1F)-c1cccc(F)c1OCc1coc2n1 [Example 96, trans-N-(6,17,19-trifluorospiro[8,12-dioxa-21-azatetracyclo[14.3.1.110,13.02,7]henicosa-1(19),2,4,6,10,13(21),16(20),17-octaene-14,4′-cyclohexane]-1′-yl)methanesulfonamide] | 0.23 | 98 |
| CS(=O)(=O)N[C@H]1CC[C@]2(CC1)Cc1ccc(F)c(c1)-c1cccc(F)c1OCc1coc2n1 [Example 97, trans-N-(6,19-difluorospiro[8,12-dioxa-21-azatetracyclo[14.3.1.110,13.02,7]henicosa-1(19),2,4,6,10,13(21),16(20),17-octaene-14,4′-cyclohexane]-1′-yl)methanesulfonamide] | 0.39 | 96 |
| CS(=O)(=O)N[C@H]1C[C@@]2(Cc3ccc(F)c(c3)-c3cccc(F)c3OCc3coc2n3)C1 [Example 98, trans-N-(6,19-difluorospiro[8,12-dioxa-21-azatetracyclo[14.3.1.110,13.02,7]henicosa-1(20),2,4,6,10,13(21),16,18-octaene-14,3′-cyclobutane]-1′-yl)methanesulfonamide] | 0.87 | 99 |
| CS(=O)(=O)N[C@@H]1CC[C@]2(Cc3ccc(F)c(c3)-c3cccc(F)c3OCc3coc2n3)C1 [Example 99, N-[(1′R,14S)-6,19-difluorospiro[8,12-dioxa-21-azatetracyclo[14.3.1.110,13.02,7]henicosa-1(19),2,4,6,10,13(21),16(20),17-octaene-14,3′-cyclopentane]-1′-yl]methanesulfonamide] | 3.3 | 96 |
| CS(=O)(=O)N[C@H]1CC[C@@]2(Cc3cc(c(F)cc3F)-c3cccc(F)c3OCc3cc(=O)[nH]c2n3)C1 [Example 101, N-[(1′S,15R)-6,18,20-trifluoro-12-oxo-spiro[8-oxa-13,22-diazatetracyclo[15.3.1.110,14.02,7]docosa-1(20),2(7),3,5,10,14(22),17(21),18-octaene-15,3′-cyclopentane]-1′-yl]methanesulfonamide] | 0.67 | 96 |
| Cc1nc2c(s1)-c1cc(ccc1F)C[C@@]1(CC[C@H](NS(C)(=O)=O)C1)c1nc(co1)CO2 [Example 102, N-[(1′S,13R)-18-fluoro-4-methyl-spiro[7,11-dioxa-3-thia-5,20-diazatetracyclo[13.3.1.19,12.02,6]icosa-1(18),2(6),4,9,12(20),15(19),16-heptaene-13,3′-cyclopentane]-1′-yl]methanesulfonamide] | 2.1 | 110 |
